How the values were obtained:
[1] = system: MCF-7 cell lysate; assay: Chemical proteomics target deconvolution with polymer-immobilized 5l; format: binding, Human; conditions: differential proteins common to three experiments, MS
Protocol: 5l was provided as a lyophilized powder. A 100 mM stock of 5l was made in DMSO. The stock solution was diluted to 215 μM in 1 mM of phosphate buffer in pH 6.0 and incubated with the matrix for 16 hrs at room temperature. After incubation, the matrix was washed five times with Phosphate buffer. The amount of molecule in the phosphate buffer wash was quantified by HPLC-UV based method and amount of molecule retained on the matrix was calculated.
Cell lysates were prepared in RIPA buffer and protein concentration was determined by Bradford method. Cell lysate was diluted with 1X TBS to a concentration of 1 mg/ml. The 5l immobilized matrix was incubated with 2 ml of cell lysate for 2 min with mild shaking. The matrix was washed with 1X TBS to remove unbound proteins and to reduce non-specific interactions. The molecule bound proteins were then recovered by acetone precipitation and was dissolved in 1X sample buffer. Proteins were separated on a 4–12% gradient gel and bands were digested by standard “in-gel” trypsin digestion methods. […]
Agilent Mass Hunter software was used for data acquisition and analysis of Total ion chromatograms. […] The peptide sequence was also analysed for variable modifications such as methionine oxidation, acetylation, cysteine sulfoxide, deamidation and pyro glutamic acid modification.

[2] = system: MCF-7 cells; assay: DNA fragmentation (DNA-ladder) assay; format: cell-based; conditions: MCF-7, gel electrophoresis
Protocol: The DMSO (dimethyl sulphoxide)–SDS (sodium dodecyl sulphate)–TE (Tris-EDTA) method: 2 million MCF-7cells were taken as starting material for DNA isolation. Cells were dislodged with Trypsin-EDTA and washed with 1 X PBS. DMSO was added directly to the cell pellet (100 μl) and mixed well by pipetting. TE buffer (pH 7.4) with 2% SDS was added into the mixture with same volume, followed by pipetting. The solution was centrifuged at 3000 rpm at 4 °C and 30 μL of the supernatant was loaded on agarose gel to check the effect of drugs on DNA molecule.

[3] = system: COS-7 cells; assay: MTT colorimetric cell viability assay, COS-7; format: cell-based
Protocol: The MTT colorimetric viability assay was performed to evaluate the anticancer effect of compounds. 30,000 cells/100 μl of media were seeded per well and allowed to stretch and adhere overnight at 37 °C. Following day media was removed and 100 μl fresh media was added to the grown cells. Adhered cells were then treated with the compounds 5a-m dissolved in DMSO in triplicates at a standard concentration of 50 μM for 48 hours. There was one positive and one negative control along with 13 compounds. The results were measured all in triplicate in 45 wells of 96 well plate at each time point. Cytotoxic effect was evaluated using ability of live cells to cleave MTT ((3-[4, 5- dimethylthiazol-2-yl]-2, 5-diphenyl tetrazolium bromide)) (Sigma-Aldrich, St Louis, MO, USA), into formazan crystals. Post 48 hours of treatment, 10 μl of MTT (5 mg/ml in PBS) was added to the cells and incubated for 4 hours in dark at 37 °C. The violet colored crystals formed were then dissolved in 100 μl DMSO solvent (Dimethyl Sulfoxide, Sigma-Aldrich, St. Louis, MO, USA). The colorimetric assay was read by a MultiMode Plate Reader (Bio-Rad) at 595 nm. Percentage of Inhibition of drug was calculated by following formula: […]

O=C1Nc2ccccc2C12CCNC2c1ccccc1 (stereo not shown) [Compound 5l]
Putative cellular binding targets [1]: HDAC2 and Prohibitin 2 are considered top priority targets
DNA fragmentation pattern / mode of cell death [2]: smearing of DNA fragments
Inhibition of proliferation of healthy COS-7 cells [3]: did not inhibit the proliferation
inhibition at 50 µM ([3]; Chlorocebus aethiops, COS-7, 50 μM, MTT, triplicates, read-out: Percentage inhibition COS-7): 15.4 ± 0.18%
